Values joined by “and” are separate entries in the source; they are usually repeats but may differ in a detail not shown here. Identical values can stand only once. Inconclusive results and toxic doses are left out. Rule for the calls: active = survival T/C of 150% or more; inactive = T/C below 125% in these data.
Tested on: P388 leukemia ip, CD2F1 mice, survival T/C
Assay: NCI In Vivo Anticancer Drug Screen. Data for tumor model P388 Leukemia (intraperitoneal) in CD2F1 (CDF1) mice
Conditions: endpoint: median survival time, higher = longer survival
Summary of the method: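 Mice carrying the transplanted tumor received test compound or vehicle. Survival was recorded in each group, and the value is the treated-group measurement divided by that of the vehicle-treated control group.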

[1] = dose: 60.0 mg/kg/injection, schedule: Q01DX005 (ip), vehicle: saline with Tween-80
[2] = dose: 120.0 mg/kg/injection, schedule: Q01DX005 (ip), vehicle: saline with Tween-80
[3] = dose: 240.0 mg/kg/injection, schedule: Q01DX005 (ip), vehicle: saline with Tween-80
[4] = dose: 50.0 mg/kg/injection, schedule: Q01DX009 (ip), vehicle: Klucel (hydroxypropylcellulose) (HPC)
[5] = dose: 50.0 mg/kg/injection, schedule: Q01DX009 (ip), vehicle: saline with Tween-80
[6] = dose: 100.0 mg/kg/injection, schedule: Q01DX009 (ip), vehicle: Klucel (hydroxypropylcellulose) (HPC)
[7] = dose: 100.0 mg/kg/injection, schedule: Q01DX009 (ip), vehicle: saline with Tween-80
[8] = dose: 200.0 mg/kg/injection, schedule: Q01DX009 (ip), vehicle: saline with Tween-80
[9] = dose: 100.0 mg/kg/injection, schedule: Q04DX003 (ip), vehicle: saline
[10] = dose: 200.0 mg/kg/injection, schedule: Q04DX003 (ip), vehicle: saline
[11] = dose: 400.0 mg/kg/injection, schedule: Q04DX003 (ip), vehicle: saline
[12] = dose: 60.0 mg/kg/injection, schedule: Q01DX005 (ip), vehicle: Klucel (hydroxypropylcellulose) (HPC)
[13] = dose: 120.0 mg/kg/injection, schedule: Q01DX005 (ip), vehicle: Klucel (hydroxypropylcellulose) (HPC)
[14] = dose: 50.0 mg/kg/injection, schedule: Q01DX005 (ip), vehicle: saline with Tween-80
[15] = dose: 100.0 mg/kg/injection, schedule: Q01DX005 (ip), vehicle: saline with Tween-80
[16] = dose: 200.0 mg/kg/injection, schedule: Q01DX005 (ip), vehicle: saline with Tween-80
[17] = dose: 200.0 mg/kg/injection, schedule: Q01DX009 (ip), vehicle: Klucel (hydroxypropylcellulose) (HPC)
[18] = dose: 50.0 mg/kg/injection, schedule: Q01DX005 (ip), vehicle: Klucel (hydroxypropylcellulose) (HPC)
[19] = dose: 100.0 mg/kg/injection, schedule: Q01DX005 (ip), vehicle: Klucel (hydroxypropylcellulose) (HPC)
[20] = dose: 200.0 mg/kg/injection, schedule: Q01DX005 (ip), vehicle: Klucel (hydroxypropylcellulose) (HPC)

Measured: T/C

ClC1=CC(Cl)=C2N=C(C(Cl)(Cl)Cl)N=C3N=C(C(Cl)(Cl)Cl)N=C1N32
inactive: dose: 15.0 mg/kg/injection, schedule: Q01DX005 (ip), vehicle: Klucel + Tween-80 101 % of control | dose: 30.0 mg/kg/injection, schedule: Q01DX005 (ip), vehicle: Klucel + Tween-80 95 % of control | dose: 60.0 mg/kg/injection, schedule: Q01DX005 (ip), vehicle: Klucel + Tween-80 99 % of control and 100 % of control

CCN(CC)c1c(C)c(C(=O)OC)nn1-c1ccccc1
inactive: [1] 107 % of control | [2] 104 % of control | [3] 96 % of control

O=[N+]([O-])c1cccc2ccc(N/N=C/c3ccccc3O)nc12
inactive: [4] 94 % of control | [5] 86 % of control | [6] 87 % of control and 91 % of control | [7] 93 % of control | [8] 88 % of control | dose: 400.0 mg/kg/injection, schedule: Q01DX009 (ip), vehicle: saline with Tween-80 89 % of control

Cc1ccc(-c2nc3ccccc3c(=O)n2/N=C/c2ccccc2O)cc1
inactive: [5] 101 % of control | [7] 100 % of control | [8] 93 % of control

CC(=O)OC1C=CC(O)N(C(C)=O)C1SC1C2CC3CC(C2)CC1C3 (configuration not stated)
inactive: [9] 101 % of control | [10] 101 % of control | [11] 108 % of control

CCCCOCN1C(=O)NC(c2ccccc2)(c2ccccc2)C1=O
inactive: [12] 94 % of control | [13] 94 % of control | dose: 240.0 mg/kg/injection, schedule: Q01DX005 (ip), vehicle: Klucel (hydroxypropylcellulose) (HPC) 94 % of control

O=C1C(=O)N(c2ccccc2)[C@]2(c3ccccc3)C1=C(c1ccccc1)N(c1ccccc1)C(=O)N2c1ccccc1
inactive: [14] 97 % of control | [15] 88 % of control | [16] 88 % of control

C=C(C)[C@@H]1CC[C@]2(C(=O)OC)CC[C@]3(C)[C@H](CC[C@@H]4[C@@]5(C)CC[C@H](O)C(C)(C)[C@@H]5CC[C@]43C)[C@@H]12
inactive: dose: 25.0 mg/kg/injection, schedule: Q01DX009 (ip), vehicle: Klucel (hydroxypropylcellulose) (HPC) 107 % of control | [4] 102 % of control | [6] 98 % of control | [17] 102 % of control

Cc1cc2c(C(C)C)c(O)c(O)c(C=Nc3ccc(C(=O)NCC(=O)O)cc3)c2c(O)c1-c1c(C)cc2c(C(C)C)c(O)c(O)c(C=Nc3ccc(C(=O)NCC(=O)O)cc3)c2c1O
inactive: [14] 94 % of control | [15] 100 % of control

Cc1ccc(S(=O)(=O)OCC(OS(=O)(=O)c2ccc(C)cc2)C2OC3OC(C)(C)OC3C2O)cc1 (configuration not stated)
inactive: [14] 103 % of control | [15] 97 % of control | [16] 96 % of control

COc1ccc2c3c(ccc2c1)CC1CCCN1C3 (configuration not stated)
inactive: dose: 50.0 mg/kg/injection, schedule: Q01DX005 (ip), vehicle: other 116 % of control | dose: 100.0 mg/kg/injection, schedule: Q01DX005 (ip), vehicle: other 104 % of control

ClCCCCOCBr
inactive: dose: 60.0 mg/kg/injection, schedule: Q01DX005 (ip), vehicle: saline 93 % of control | dose: 240.0 mg/kg/injection, schedule: Q01DX005 (ip), vehicle: saline 87 % of control

Cn1c(=O)c2c(O)c(-c3ccccc3)c(=O)n3c4ccccc4n(c1=O)c23
inactive: [1] 99 % of control | [2] 96 % of control | [3] 97 % of control

O=C(O)C1C(C(=O)O)C1c1ncnc2nc[nH]c12 (configuration not stated)
inactive: dose: 25.0 mg/kg/injection, schedule: Q04DX003 (ip), vehicle: saline 99 % of control and 100 % of control | dose: 50.0 mg/kg/injection, schedule: Q04DX003 (ip), vehicle: saline 100 % of control and 101 % of control | [9] 98 % of control and 103 % of control and 100 % of control | [10] 103 % of control and 104 % of control | [11] 100 % of control and 99 % of control

Nc1nc2c(c(=O)[nH]1)N(C(=O)c1ccc(S(=O)(=O)F)cc1)C(CNc1ccc(C(=O)NC(CCC(=O)O)C(=O)O)cc1)CN2 (configuration not stated)
inactive: dose: 50.0 mg/kg/injection, schedule: Q04DX003 (ip), vehicle: other 104 % of control | dose: 100.0 mg/kg/injection, schedule: Q04DX003 (ip), vehicle: other 104 % of control | dose: 200.0 mg/kg/injection, schedule: Q04DX003 (ip), vehicle: other 113 % of control

CCN(CC)c1ccc2cc(-n3nnc4ccccc43)c(=O)oc2c1
inactive: [1] 96 % of control | [2] 96 % of control | [3] 99 % of control

Cc1cc(=O)n2c(nc3cc([N+](=O)[O-])ccc32)s1
inactive: [4] 98 % of control | [6] 99 % of control | [17] 98 % of control

Cc1cn(C2CC(O)C(C(=O)Nc3ccc(C(=O)CCl)cc3)O2)c(=O)[nH]c1=O (configuration not stated)
inactive: [14] 108 % of control | [15] 114 % of control | [16] 109 % of control

Cc1ccc2c(c1)nc1cc3c(cc1n2C1CCCCC1)c(Cl)c(=O)c1ccccc13
inactive: [5] 92 % of control | [7] 92 % of control | [8] 98 % of control

O=C1CSC(c2cccc(O)c2O)N1c1nncs1 (configuration not stated)
inactive: [1] 111 % of control | [2] 96 % of control | [3] 96 % of control

Cc1ccc2c(c1)SP1(c3ccccc3)(Oc3c(c4ccccc4c4ccccc34)O1)S2
inactive: [1] 118 % of control | [2] 110 % of control | [3] 114 % of control

Cc1nn(C(=S)S)c(C)c1N=Nc1ccc(Br)cc1
inactive: dose: 100.0 mg/kg/injection, schedule: Q04DX002 (ip), vehicle: Klucel (hydroxypropylcellulose) (HPC) 113 % of control | dose: 200.0 mg/kg/injection, schedule: Q04DX002 (ip), vehicle: Klucel (hydroxypropylcellulose) (HPC) 90 % of control | dose: 400.0 mg/kg/injection, schedule: Q04DX002 (ip), vehicle: Klucel (hydroxypropylcellulose) (HPC) 112 % of control

CCOP(=O)(O)CC(=O)NC(CC(=O)O)C(=O)O (configuration not stated)
inactive: [4] 100 % of control and 111 % of control | [6] 103 % of control and 108 % of control | [17] 106 % of control

O=C(Cc1ccc2c(c1)OCO2)c1ccc(O)cc1O
inactive: [1] 99 % of control | [2] 105 % of control | [3] 98 % of control

O=c1[nH]c2c([N+](=O)[O-])cc(Cl)cc2nc1/C=C(\O)c1ccncc1
inactive: [12] 102 % of control | [13] 99 % of control

Cc1ccc(S(=O)(=O)OCCOc2ccc3ccccc3c2-c2c(OCCOc3ccc4ccccc4c3-c3c(OCCOS(=O)(=O)c4ccc(C)cc4)ccc4ccccc34)ccc3ccccc23)cc1
inactive: dose: 100.0 mg/kg/injection, schedule: Q01DX001 (ip), vehicle: saline with Tween-80 101 % of control | dose: 200.0 mg/kg/injection, schedule: Q01DX001 (ip), vehicle: saline with Tween-80 97 % of control | dose: 400.0 mg/kg/injection, schedule: Q01DX001 (ip), vehicle: saline with Tween-80 97 % of control

CCOC(=O)c1cnc2ccccc2c1N=[N+]=[N-]
inactive: [1] 94 % of control | [2] 99 % of control | [3] 103 % of control

CCN(CC)C(=Nc1ccccc1)NC#N
inactive: [18] 110 % of control | [19] 105 % of control | [20] 96 % of control

CCC1(CC)CC1C(=O)O (configuration not stated)
inactive: [18] 93 % of control | [19] 89 % of control | [20] 89 % of control

COc1cccc2c1C(=O)c1c(O)c3c(c(O)c1C2=O)CC(O)(C(=O)COC(C)C)CC3O (configuration not stated)
inactive: dose: 1.56 mg/kg/injection, schedule: Q01DX009 (ip), vehicle: other 100 % of control | dose: 3.13 mg/kg/injection, schedule: Q01DX009 (ip), vehicle: other 100 % of control | dose: 6.25 mg/kg/injection, schedule: Q01DX009 (ip), vehicle: other 100 % of control | dose: 12.5 mg/kg/injection, schedule: Q01DX009 (ip), vehicle: other 103 % of control | dose: 25.0 mg/kg/injection, schedule: Q01DX009 (ip), vehicle: other 103 % of control

NC(=O)NC1CCCCCC1
inactive: dose: 100.0 mg/kg/injection, schedule: Q04DX003 (ip), vehicle: saline with Tween-80 100 % of control | dose: 200.0 mg/kg/injection, schedule: Q04DX003 (ip), vehicle: saline with Tween-80 100 % of control | dose: 400.0 mg/kg/injection, schedule: Q04DX003 (ip), vehicle: saline with Tween-80 109 % of control
